Laboratory results reported in patent publication US20090163546A1, “DIACYLGLYCEROL ACYLTRANSFERASE INHIBITORS” (priority 2007, published 2009).

These compounds were tested on DGAT (assay: DGAT Phospholipid FlashPlate Assay). Details: DGAT pellet, DAG-coated PL-FlashPlate, 14C-Pal-CoA, 37° C. for 1 hour; read-out: Activity in DGAT Phospholipid FlashPlate Assay (A = IC50 < 0.10 μM, B = IC50 ≧ 0.10 μM).
Assay type: biochemical
Description: Materials for the assay were: PL-FlashPlate: Phospholipid FlashPlates from PerkinElmer, catalog number SMP108; DAG (1,2-Dioleoyl-sn-glycerol) 10 mM suspended in water containing 0.1% Triton X-100; ^14C-Pal-CoA (palmitoyl coenzyme A, [palmitoyl-1-^14C]) from PerkinElmer, catalog number NEC-555 with a specific activity of 55 mCi/mmol; and DGAT pellet, with a protein concentration of 9.85 mg/ml.
Aqueous buffers were prepared or purchased as follows: The coating buffer (CB) was purchased from PerkinElmer, catalog number SMP900A; the reaction buffer (RB) was 50 mM Tris-HCl, pH 7.5, 100 mM NaCl, 0.01 % BSA in water; the washing buffer (WB) is 50 mM Tris-HCl, pH 7.5, 100 mM NaCl, 0.05 % deoxycholic acid sodium salt in water; the dilution buffer (DB) was 50 mM Tris-HCl, pH 7.5, 100 mM NaCl, 1 mM EDTA, 0.2% Triton X-100 in water.
1,2-Dioleoyl-sn-glycerol (DAG, 10 mmoles) was diluted to 500 μM with coating buffer (CB). The diluted DAG solution was then added to 384-well PL-FlashPlates at 60 μl per well, and incubated at room temperature for 2 days. The coated plates were then washed twice with washing buffer (WB) before use. Test compounds were serial diluted to 2000, 666.7, 222.2, 74.1, 24.7, 8.2, 2.7 and 0.9 μM in 100% DMSO. Diluted compound were further diluted 10 fold with reaction buffer (RB). ^14C-Pal-CoA was diluted to 8.3 μM with RB. The DGAT pellet was diluted to 0.13 mg protein/ml with dilution buffer (DB) immediately before it was added to the PL-FlashPlates to start the reaction. 20 μl of the RB-diluted compounds (or 10% DMSO in RB for Total and Blank), 15 μl of RB diluted 14C-Pal-CoA and 15 μl of DB diluted DGAT pellet (DB without DGAT for Blanks) were transferred to each well of the PL-FlashPlates. The reaction mixtures were incubated at 37° C. for 1 hour. The reactions were stopped by washing 3 times with WB. Plates were sealed with Top-seal and read on a Topcount instrument.
Calculation of IC50: The IC50 values for each compound were generated using an Excel template. The Topcount rpm readings of Total and Blank were used as 0% and 100% inhibition. The percent inhibition values of reactions in the presence of compounds were calculated, and plotted against compound concentrations. All data were fitted into a Dose Response One Site model (4 parameter logistic model) as the following:
(A+((B−A)/(1+((x/C)̂D)))),
with A and B as the bottom and top of the curve ([…]), respectively, and C as IC50 and D as Hill Coefficient of the compound.

Row | Structure (SMILES) | IC50
1 | COc1ccc(Cl)cc1NC(=O)Nc1ccc2c(c1)c(=O)[nH]n2Cc1ccccc1 [Example 1, 1-(1-Benzyl-3-oxo-2,3-dihydro-1H-indazol-5-yl)-3-(5-chloro-2-methoxy-phenyl)-urea] | ≥ 100 nM
2 | CCOc1ccccc1NC(=O)Nc1ccc2c(c1)c(=O)[nH]n2Cc1ccccc1 [Example 2, 1-(1-Benzyl-3-oxo-2,3-dihydro-1H-indazol-5-yl)-3-(2-ethoxy-phenyl)-urea] | ≥ 100 nM
3 | COc1ccccc1NC(=O)Nc1ccc2c(c1)c(=O)[nH]n2Cc1ccccc1 [Example 3, 1-(1-Benzyl-3-oxo-2,3-dihydro-1H-indazol-5-yl)-3-(2-methoxy-phenyl)-urea] | ≥ 100 nM
4 | CCCn1[nH]c(=O)c2cc(NC(=O)Nc3ccccc3OC(F)(F)F)ccc21 [Example 4, 1-(3-Oxo-1-propyl-2,3-dihydro-1H-indazol-5-yl)-3-(2-trifluoromethoxy-phenyl)-urea] | ≥ 100 nM
5 | CCCCc1ccc(NC(=O)Nc2ccc3c(c2)c(=O)[nH]n3CCC)cc1 [Example 5, 1-(4-Butyl-phenyl)-3-(3-oxo-1-propyl-2,3-dihydro-1H-indazol-5-yl)-urea] | ≥ 100 nM
6 | CCCn1[nH]c(=O)c2cc(NC(=O)Nc3ccccc3C(C)C)ccc21 [Example 8, 1-(2-Isopropyl-phenyl)-3-(3-oxo-1-propyl-2,3-dihydro-1H-indazol-5-yl)-urea] | ≥ 100 nM
7 | CCCn1[nH]c(=O)c2cc(NC(=O)Nc3ccccc3CC)ccc21 [Example 10, 1-(2-Ethyl-phenyl)-3-(3-oxo-1-propyl-2,3-dihydro-1H-inidazol-5-yl)-urea] | < 100 nM
8 | CCCn1[nH]c(=O)c2cc(NC(=O)Nc3ccc(C(F)(F)F)cc3)ccc21 [Example 13, 1-(3-Oxo-1-propyl-2,3-dihydro-1H-indazol-5-yl)-3-(4-trifluoromethyl-phenyl)-urea] | ≥ 100 nM
9 | CCCn1[nH]c(=O)c2cc(NC(=O)Nc3ccccc3)ccc21 [Example 14, 1-(3-Oxo-1-propyl-2,3-dihydro-1H-indazol-5-yl)-3-phenyl-urea] | ≥ 100 nM
10 | COc1c(Cl)cccc1NC(=O)Nc1ccc2c(c1)c(=O)[nH]n2Cc1ccccc1 [Example 23, 1-(1-Benzyl-3-oxo-2,3-dihydro-1H-indazol-5-yl)-3-(3-chloro-2-methoxy-phenyl)-urea] | ≥ 100 nM
11 | CCOC(=O)Cn1[nH]c(=O)c2cc(NC(=O)Nc3ccccc3CC)ccc21 [Example 24, {5-[3-(2-ethyl-phenyl)-ureido]-3-oxo-2,3-dihydro-indazol-1-yl}-acetic acid ethyl ester] | ≥ 100 nM
12 | CCc1ccccc1NC(=O)Nc1ccc2c(c1)c(=O)[nH]n2CCOCCOC [Example 25, 1-(2-ethyl-phenyl)-3-{1-[2-(2-methoxy-ethoxy)-ethyl]-3-oxo-2,3-dihydro-1H-indazol-5-yl}-urea] | ≥ 100 nM
13 | CCc1ccccc1NC(=O)Nc1ccc2c(c1)c(=O)[nH]n2CCOC [Example 26, 1-(2-ethyl-phenyl)-3-[1-(2-methoxy-ethyl)-3-oxo-2,3-dihydro-1H-indazol-5-yl]-urea] | ≥ 100 nM
14 | CCCn1[nH]c(=O)c2cc(NC(=O)Nc3cccc4cccnc34)ccc21 [Example 27, 1-(3-Oxo-1-propyl-2,3-dihydro-1H-indazol-5-yl)-3-quinolin-8-yl-urea] | < 100 nM
15 | CCCn1[nH]c(=O)c2cc(NC(=O)Nc3ccccc3N3CCCCC3)ccc21 [Example 28, 1-(3-Oxo-1-propyl-2,3-dihydro-1H-indazol-5-yl)-3-(2-piperidin-1-yl-phenyl)-urea] | ≥ 100 nM
16 | CCCn1[nH]c(=O)c2cc(NC(=O)Nc3ccccc3C(C)CC)ccc21 (stereo not shown) [Example 29, 1-(2-sec-Butyl-phenyl)-3-(3-oxo-1-propyl-2,3-dihydro-1H-indazol-5-yl)-urea] | ≥ 100 nM
17 | O=C(Nc1ccc2c(c1)c(=O)[nH]n2Cc1ccccc1)Nc1ccccc1N1CCCCC1 [Example 30, 1-(1-Benzyl-3-oxo-2,3-dihydro-1H-indazol-5-yl)-3-(2-piperidin-1-yl-phenyl)-urea] | ≥ 100 nM
18 | C#Cc1cccc(NC(=O)Nc2ccc3c(c2)c(=O)[nH]n3CCC)c1 [Example 31, 1-(3-Ethynyl-phenyl)-3-(3-oxo-1-propyl-2,3-dihydro-1H-indazol-5-yl)-urea] | ≥ 100 nM
19 | CCCn1[nH]c(=O)c2cc(NC(=O)Nc3cccc(C(F)(F)F)c3)ccc21 [Example 32, 1-(3-Oxo-1-propyl-2,3-dihydro-1H-indazol-5-yl)-3-(3-trifluoromethyl-phenyl)-urea] | ≥ 100 nM
20 | CC(C)Oc1cccc(NC(=O)Nc2ccc3c(c2)c(=O)[nH]n3Cc2ccccc2)c1 [Example 33, 1-(1-Benzyl-3-oxo-2,3-dihydro-1H-indazol-5-yl)-3-(3-isopropoxy-phenyl)-urea] | ≥ 100 nM
21 | O=C(Nc1cccc(C(F)(F)F)c1)Nc1ccc2c(c1)c(=O)[nH]n2Cc1ccccc1 [Example 34, 1-(1-Benzyl-3-oxo-2,3-dihydro-1H-indazol-5-yl)-3-(3-trifluoromethyl-phenyl)-urea] | ≥ 100 nM

Further lines, results first:

Row | IC50 | Structure (SMILES)
22 | ≥ 100 nM | CCCn1[nH]c(=O)c2cc(NC(=O)Nc3cc(C)ccc3OC)ccc21 [Example 6, 1-(2-Methoxy-5-methyl-phenyl)-3-(3-oxo-1-propyl-2,3-dihydro-1H-indazol-5-yl)-urea]
23 | < 100 nM | CCCn1[nH]c(=O)c2cc(NC(=O)Nc3cc(Cl)ccc3OC)ccc21 [Example 7, 1-(5-Chloro-2-methoxy-phenyl)-3-(3-oxo-1-propyl-2,3-dihydro-1H-indazol-5-yl)-urea]
24 | < 100 nM | CCCn1[nH]c(=O)c2cc(NC(=O)Nc3ccc(Cl)c(Cl)c3)ccc21 [Example 9, 1-(3,4-Dichloro-phenyl)-3-(3-oxo-1-propyl-2,3-dihydro-1H-indazol-5-yl)-urea]
25 | ≥ 100 nM | CCCn1[nH]c(=O)c2cc(NC(=O)Nc3cc(Cl)ccc3Cl)ccc21 [Example 11, 1-(2,5-Dichloro-phenyl)-3-(3-oxo-1-propyl-2,3-dihydro-1H-indazol-5-yl)-urea]
26 | ≥ 100 nM | CCCn1[nH]c(=O)c2cc(NC(=O)Nc3ccc(Cl)cc3Cl)ccc21 [Example 12, 1-(2,4-Dichloro-phenyl)-3-(3-oxo-1-propyl-2,3-dihydro-1H-indazol-5-yl)-urea]
27 | ≥ 100 nM | CCCn1[nH]c(=O)c2cc(NC(=O)Nc3cccc(Cl)c3)ccc21 [Example 15, 1-(3-Chloro-phenyl)-3-(3-oxo-1-propyl-2,3-dihydro-1H-indazol-5-yl)-urea]
28 | ≥ 100 nM | CCCn1[nH]c(=O)c2cc(NC(=O)Nc3cccc(C)c3)ccc21 [Example 16, 1-(3-Oxo-1-propyl-2,3-dihydro-1H-indazol-5-yl)-3-m-tolyl-urea]
29 | ≥ 100 nM | CCCn1[nH]c(=O)c2cc(NC(=O)Nc3cccc(F)c3)ccc21 [Example 17, 1-(3-Fluoro-phenyl)-3-(3-oxo-1-propyl-2,3-dihydro-1H-indazol-5-yl)-urea]
30 | ≥ 100 nM | CCCn1[nH]c(=O)c2cc(NC(=O)Nc3ccc(F)cc3F)ccc21 [Example 18, 1-(2,4-Difluoro-phenyl)-3-(3-oxo-1-propyl-2,3-dihydro-1H-indazol-5-yl)-urea]
31 | ≥ 100 nM | CCCn1[nH]c(=O)c2cc(NC(=O)Nc3cccc(Br)c3)ccc21 [Example 19, 1-(3-Bromo-phenyl)-3-(3-oxo-1-propyl-2,3-dihydro-1H-indazol-5-yl)-urea]
32 | ≥ 100 nM | CCCn1[nH]c(=O)c2cc(NC(=O)Nc3ccccc3OC)ccc21 [Example 20, 1-(2-Methoxy-phenyl)-3-(3-oxo-1-propyl-2,3-dihydro-1H-indazol-5-yl)-urea]
33 | ≥ 100 nM | CCCn1[nH]c(=O)c2cc(NC(=O)Nc3ccccc3Cl)ccc21 [Example 21, 1-(2-Chloro-phenyl)-3-(3-oxo-1-propyl-2,3-dihydro-1H-indazol-5-yl)-urea]
34 | ≥ 100 nM | CCCn1[nH]c(=O)c2cc(NC(=O)Nc3ccccc3F)ccc21 [Example 22, 1-(2-Fluoro-phenyl)-3-(3-oxo-1-propyl-2,3-dihydro-1H-indazol-5-yl)-urea]
